Among the test systems are NCI-H23; RPMI-8226; DMS-114; Malme-3M; SF-539; NCI-H460; OVCAR-4; SK-MEL-2; HCC 2998; SF-268; UACC-257; HOP-62; UACC-62; KM12; SF-295; ACHN; DU-145; HCT-116; MDA-MB-231; HL-60.
Common to all, as to assay: NCI tumour cell line growth inhibition, 48 h

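Growth conditions: 96-well plates. Treatment: test compound, 48 hours, 5 concentrations. Analysis: linear interpolation between bracketing concentrations; unreached endpoints set to highest concentration. Abbreviation: GI50, concentration required for 50% inhibition of growth.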 Active and inactive are the calls of the source. Cut-off read from the data, not from the text of the source: active = GI50 up to about 1.1 µM and inactive = higher. Bounds are passed on as bounds.

Regarding `COc1cc(OC)c(C(=O)c2cccs2)cc1N`, the GI50 in the assay on NCI-H23, with RPMI-8226, in the assay with DMS-114, in the assay on Malme-3M, in the assay with SF-539 and with NCI-H460 was > 100 µM (inactive) in each case. Also, the GI50 in the assay with OVCAR-4, in the assay on SK-MEL-2, in the assay on HCC 2998, in the assay with SF-268, in the assay on UACC-257 and in the assay on HOP-62 was > 100 µM (inactive) each time. The GI50 with UACC-62, in the assay with KM12, in the assay with SF-295 and in the assay with ACHN was > 100 µM (inactive) in each case.
Take `COC(=O)C1=C(C(=O)OC)SC2(S1)C1=C(CCCC1)SC(C(=O)OC)=C2C(=O)OC`: the GI50 in the assay on NCI-H23 is 15.8 µM (inactive); with RPMI-8226, 0.586 µM (active); in the assay with DU-145, 1.64 µM (inactive); in the assay on Malme-3M it was 11.4 µM (inactive); with SF-539 it was 1.51 µM (inactive); in the assay on NCI-H460, 3.84 µM (inactive). In addition, the GI50 in the assay on OVCAR-4 is 12.2 µM (inactive); with SK-MEL-2 it was 15.5 µM (inactive); in the assay with HCT-116, 1.52 µM (inactive); in the assay on HCC 2998, 12.3 µM (inactive); with MDA-MB-231 it was 15.8 µM (inactive); with SF-268 it was 9.71 µM (inactive). Also, the GI50 in the assay with UACC-257 is 13.1 µM (inactive); with HOP-62, 5.62 µM (inactive); with UACC-62, 12.7 µM (inactive); with KM12, 5.74 µM (inactive); in the assay with SF-295, 14.6 µM (inactive); in the assay on ACHN it was 6.05 µM (inactive). The GI50 in the assay with HL-60 is 2.91 µM (inactive).
Regarding `O=C1c2ccccc2C(=O)N1Cc1ccccc1-c1c2nc(c(-c3ccccc3CN3C(=O)c4ccccc4C3=O)c3ccc([nH]3)c(-c3ccccc3CN3C(=O)c4ccccc4C3=O)c3nc(c(-c4ccccc4CN4C(=O)c5ccccc5C4=O)c4ccc1[nH]4)C=C3)C=C2`, the GI50 in the assay with NCI-H23, in the assay with RPMI-8226, in the assay on DMS-114, in the assay with Malme-3M, in the assay on SF-539 and in the assay with NCI-H460 was > 100 µM (inactive) each time. Besides, the GI50 with OVCAR-4, in the assay on SK-MEL-2, with HCT-116, with SF-268, with UACC-257 and in the assay on HOP-62 was > 100 µM (inactive) each time. In addition, the GI50 in the assay with UACC-62 was > 100 µM (inactive); in the assay with KM12, > 100 µM (inactive); in the assay with SF-295, 72.1 µM (inactive); with ACHN it was > 100 µM (inactive); in the assay on HL-60 it was > 100 µM (inactive).
Consider `CSc1nc(Br)nc2ncn(C3CC(Oc4ccc(C)cc4)C(COc4ccc(C)cc4)O3)c12` (centres undefined), for which the GI50 in the assay with NCI-H23 was > 100 µM (inactive); with RPMI-8226, > 100 µM (inactive); in the assay on DU-145, > 100 µM (inactive); with Malme-3M, > 100 µM (inactive); with SF-539 it was 28.9 µM (inactive); with NCI-H460 it was > 100 µM (inactive). Further, the GI50 in the assay with OVCAR-4, with SK-MEL-2, in the assay with HCT-116, in the assay on HCC 2998, in the assay on MDA-MB-231 and with SF-268 was > 100 µM (inactive) each time. Also, the GI50 was > 100 µM (inactive) with UACC-257; > 100 µM (inactive) with HOP-62; > 100 µM (inactive) with UACC-62; > 100 µM (inactive) in the assay with KM12; > 100 µM (inactive) in the assay on SF-295; 28.2 µM (inactive) in the assay with ACHN. The GI50 with HL-60 was > 100 µM (inactive).
Regarding `CC(C)=CCc1c(O)cc(O)c2c1OC(c1ccc(O)cc1)C(O)C2=O` (centres undefined), the GI50 in the assay on NCI-H23 was 18.2 µM (inactive); in the assay with DMS-114, 39.4 µM (inactive); in the assay on Malme-3M, 25.5 µM (inactive); in the assay with SF-539 it was 18.4 µM (inactive); with NCI-H460 it was 27.6 µM (inactive); in the assay with OVCAR-4, 30.5 µM (inactive). For the same molecule, the GI50 in the assay with SK-MEL-2 is 23.6 µM (inactive); in the assay with HCT-116, 32.4 µM (inactive); in the assay with HCC 2998, 23.1 µM (inactive); in the assay on SF-268, 32.1 µM (inactive); in the assay on UACC-257, 36.2 µM (inactive); with HOP-62, 19.3 µM (inactive). In addition, the GI50 in the assay on UACC-62 is 21.4 µM (inactive); in the assay with KM12, 26.5 µM (inactive); in the assay on SF-295 it was 27.5 µM (inactive); in the assay with ACHN, 25.5 µM (inactive).
Turning to `O=C(O)C1(Cc2ccc3c(c2)CCC3)Cc2ccccc2C1`, the GI50 with NCI-H23 was 67.6 µM (inactive); in the assay with RPMI-8226, 71.1 µM (inactive); in the assay with DU-145, > 100 µM (inactive); in the assay on Malme-3M it was 71.3 µM (inactive); in the assay on SF-539, > 100 µM (inactive); with NCI-H460, 52.1 µM (inactive). Besides, the GI50 in the assay with OVCAR-4 is 23.3 µM (inactive); with SK-MEL-2, > 100 µM (inactive); in the assay with HCT-116, 50.4 µM (inactive); with HCC 2998, 41.9 µM (inactive); in the assay on MDA-MB-231, > 100 µM (inactive); in the assay with SF-268, 52.7 µM (inactive). Moreover, the GI50 is > 100 µM (inactive) in the assay on UACC-257; 84.5 µM (inactive) with HOP-62; 76.6 µM (inactive) with UACC-62; 46.3 µM (inactive) with KM12; 38.9 µM (inactive) in the assay with SF-295; 53.7 µM (inactive) with ACHN. In addition, the GI50 in the assay with HL-60 is 35.2 µM (inactive).
Consider `C=C(COCO)C(C)=O`, for which the GI50 in the assay with NCI-H23 was 17.5 µM (inactive); in the assay on RPMI-8226, 2.94 µM (inactive); with DU-145 it was 26 µM (inactive); in the assay on Malme-3M it was 9.73 µM (inactive); with SF-539 it was 6.24 µM (inactive); in the assay with NCI-H460, 22 µM (inactive). Further, the GI50 in the assay on OVCAR-4 was 17.9 µM (inactive); in the assay on SK-MEL-2, 22.8 µM (inactive); with HCT-116, 13.5 µM (inactive); with HCC 2998, 27.9 µM (inactive); with MDA-MB-231, 18.8 µM (inactive); in the assay with SF-268, 20 µM (inactive). The GI50 was 15.3 µM (inactive) with UACC-257; > 47.1 µM (inactive) in the assay with HOP-62; 17.2 µM (inactive) in the assay on UACC-62; > 40.3 µM (inactive) with KM12; > 75 µM (inactive) in the assay on SF-295; 15.7 µM (inactive) with ACHN. Besides, the GI50 in the assay on HL-60 is 3.48 µM (inactive).
Regarding `O=C(CCCN1CCC2(CC1)CC(c1ccccc1)OC2=O)c1ccc(F)cc1` (centres undefined), the GI50 in the assay with NCI-H23 is 53.7 µM (inactive); in the assay with RPMI-8226, 30.1 µM (inactive); in the assay on DU-145, 64.9 µM (inactive); with Malme-3M it was 17.8 µM (inactive); with SF-539, 28.4 µM (inactive); in the assay with NCI-H460, 48.1 µM (inactive). The GI50 with OVCAR-4 was 37.9 µM (inactive); in the assay with SK-MEL-2, 35.1 µM (inactive); with HCT-116, 33.8 µM (inactive); with HCC 2998, 23.4 µM (inactive); with MDA-MB-231 it was 84.5 µM (inactive); in the assay on SF-268, 53.7 µM (inactive). For the same molecule, the GI50 in the assay on UACC-257 is 23.6 µM (inactive); in the assay on HOP-62, 29.6 µM (inactive); in the assay with UACC-62, 25.2 µM (inactive); with KM12, 35 µM (inactive); in the assay with SF-295, 25 µM (inactive); in the assay on ACHN, 54.6 µM (inactive). In addition, the GI50 with HL-60 was 25.6 µM (inactive).
Take `Cc1ccccc1NC(=O)C(=O)CC(=O)c1ccc([N+](=O)[O-])cc1`: the GI50 in the assay on NCI-H23, with RPMI-8226, in the assay with DMS-114, in the assay with Malme-3M, in the assay with SF-539 and in the assay on NCI-H460 was > 100 µM (inactive) throughout. Also, the GI50 was > 100 µM (inactive) with OVCAR-4; > 100 µM (inactive) in the assay with SK-MEL-2; > 100 µM (inactive) with HCT-116; 23.8 µM (inactive) in the assay on HCC 2998; > 100 µM (inactive) with SF-268; > 100 µM (inactive) with UACC-257. Also, the GI50 with HOP-62, with UACC-62, in the assay on KM12, with SF-295 and in the assay with ACHN was > 100 µM (inactive) throughout.
For `O=C1Sc2ccccc2NC1=C(C(=O)c1ccccc1)C(=O)c1ccccc1`, the GI50 with NCI-H23 is 22.6 µM (inactive); with RPMI-8226, 12.6 µM (inactive); in the assay on DU-145 it was 21.2 µM (inactive); in the assay on Malme-3M it was 41.2 µM (inactive); in the assay with SF-539 it was 26.5 µM (inactive); with NCI-H460, 9.95 µM (inactive). For the same molecule, the GI50 is 69.8 µM (inactive) in the assay with OVCAR-4; 19.4 µM (inactive) with SK-MEL-2; 18.7 µM (inactive) in the assay with HCT-116; 19.4 µM (inactive) in the assay with HCC 2998; 65.6 µM (inactive) with MDA-MB-231; 14.9 µM (inactive) in the assay with SF-268. Moreover, the GI50 was 17.5 µM (inactive) in the assay on UACC-257; 8.75 µM (inactive) in the assay on HOP-62; 27 µM (inactive) in the assay on UACC-62; 31.6 µM (inactive) in the assay with KM12; 20.6 µM (inactive) in the assay with SF-295; 22.1 µM (inactive) with ACHN. Also, in the assay with HL-60, the GI50 is 1.87 µM (inactive).
Turning to `C/C1=C\CC/C(C)=C/C=C(/C(C)C)CC/C(C(=O)O)=C/CC1` [CROTOCEMBRANEIC ACID], the GI50 in the assay on NCI-H23 is 36.5 µM (inactive); in the assay with RPMI-8226, 22.8 µM (inactive); in the assay with DU-145, 61.2 µM (inactive); in the assay with Malme-3M, 70.1 µM (inactive); with SF-539, 37.9 µM (inactive); in the assay with NCI-H460, 34.8 µM (inactive). Further, the GI50 is 55.1 µM (inactive) in the assay with OVCAR-4; 25.7 µM (inactive) in the assay with SK-MEL-2; 40.3 µM (inactive) in the assay on HCT-116; 37.6 µM (inactive) with HCC 2998; 56.5 µM (inactive) in the assay with MDA-MB-231; 72.8 µM (inactive) in the assay with SF-268. In addition, the GI50 is 82.8 µM (inactive) in the assay on UACC-257; 29.6 µM (inactive) in the assay with HOP-62; 25.8 µM (inactive) in the assay on UACC-62; 42.9 µM (inactive) in the assay with KM12; 26.7 µM (inactive) in the assay with SF-295; 34.5 µM (inactive) with ACHN. Besides, in the assay with HL-60, the GI50 is 33 µM (inactive).

(Values after ChEMBL document CHEMBL1201862, “PubChem BioAssay data set” (2004).)
